# Results reported in US20260274794A1, “COMPOUNDS, COMPOSITIONS, AND METHOD OF INHIBITING TAU PROTEIN AND ALPHASYNUCLEIN AGGREGATION” (Purdue Research Foundation, priority 2023, published 2026).
# Entries after “also recorded” stand apart in the source; their conditions may differ.
# Columns and labels:
# tau isoform 2N4R = molecular target: T1, tau isoform 2N4R (Homo sapiens, UniProt P10636); assay: PICUP assay of tau isoform 2N4R oligomerization; format: biochemical; conditions: compound 50 μM
# T1 construct: made in house; host or cells: E. coli BL21 (DE3), vector pRK172
# T1 sequence (P10636 1-441 isoform P10636-8): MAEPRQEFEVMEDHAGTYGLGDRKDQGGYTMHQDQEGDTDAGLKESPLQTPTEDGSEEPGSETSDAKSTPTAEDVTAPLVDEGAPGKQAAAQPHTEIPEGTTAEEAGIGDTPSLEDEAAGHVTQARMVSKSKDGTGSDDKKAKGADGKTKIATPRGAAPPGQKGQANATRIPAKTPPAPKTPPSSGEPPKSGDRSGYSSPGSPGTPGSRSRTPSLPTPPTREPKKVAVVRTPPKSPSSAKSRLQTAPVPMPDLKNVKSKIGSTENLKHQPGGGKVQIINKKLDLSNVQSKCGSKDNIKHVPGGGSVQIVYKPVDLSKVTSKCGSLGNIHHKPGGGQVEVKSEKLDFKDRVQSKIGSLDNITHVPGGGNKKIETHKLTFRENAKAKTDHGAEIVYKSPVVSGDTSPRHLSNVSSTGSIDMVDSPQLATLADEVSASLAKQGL
# Procedure: To force the oligomerization by cross-linking, α-syn (from Rpeptide, LLC) and tau isoform 2N4R were diluted in 10 mM phosphate buffer (pH 7.4) to reach a final concentration of 10 μM [27]. Different compounds were added to the protein solution at a final concentration of 50 μM, resulting in a molar ratio of 1:5. To confirm the gradual effect of the compounds on the inhibition of α-syn oligomerization, compounds were tested at final concentration of 3.125, 6.25, 12.5, 25, and 50 μM. The controls consisted of samples without light exposition, without Ru(bpy), and without compound (i.e., 0.125% DMSO). The cross-linking reaction was initiated by the addition of 2 μL of Ru(bpy) (300 μM final concentration) and 2 μL ammonium persulfate (6 mM final concentration). Samples were irradiated immediately. Light exposition was of 1 second duration for ca-syn and 3 second duration for tau isoform 2N4R, with a 53 W (120 V) incandescent lamp installed in a homemade dark-box. Each tube contained a final volume of 20 μL. After irradiation, 8.3 μL. of Lammeli loading buffer containing 15% β-mercaptoethanol was immediately added to the solution, followed by incubation at 95° C. for 10 minutes. The cross-linked samples were separated on a 16% SDS-Page gel and visualized by Coomassie blue staining.
# One end point used to verify the propensity of misfolded protein in the drug discovery field is the inhibition of oligomer formation. The photo-induced cross-linking of unmodified proteins (PICUP) assay was used to investigate α-syn (60 μM) and tau isoform 2N4R (6 μM) oligomerization in the presence of eight amide compounds (2, 4, 5, 6, 7, 8, 13, and 17 at 50 μM, i.e., ~molar ratio 1:8 for tau). After being subjected to short light exposure, α-syn and tau were cross-linked and Coomassie-stained resolved as a higher molecular weight compared to control (0.125% DMSO). […] Compound 13 was used as a negative control for the α-syn PICUP.
# PICUP assays were performed with different concentrations (50 μM, 25 μM, 12.5 μM, 6.25 μM, 3.125 μM; control=0.125% DMSO) for each lead compound.
# [1] = Brain and plasma concentration after administration; format: in vivo; conditions: 1 mg/kg
# Procedure: For compound 8, the brain concentration and plasma concentration ratio is equal to more than 1 for the 3 time points (0.08, 0.5 and 1 hour) where the compound was detected, which is adequate.
# [2] = Mouse microsomal stability; format: in vitro ADME
SMILES,tau isoform 2N4R oligomerization (PICUP crosslinking) (tau isoform 2N4R),Half-life [1],detection of compound over time [1],"Kp ([1]; brain and plasma, 0.08, 0.5 and 1 hour, read-out: brain concentration and plasma concentration ratio)",Mouse microsomal stability [2] [%]
"O=C(Nc1cccc2[nH]ccc12)c1ccccc1 [Compound 2, N-(1H-indol-4-yl)benzamide]",effectively prevented this crosslinking; also recorded: prevented tau 2N4R oligomer formation,,,,
"O=C(Nc1cccc2[nH]ccc12)c1ccc(F)cc1 [Compound 8, 4-fluoro-N-(1H-indol-4-yl)benzamide]",effectively prevented this crosslinking; also recorded: prevented tau 2N4R oligomer formation,presumed to be short,not detected beyond the time point of 60 min,> 1,70
